Experiments:
KRAS G12D/RAF1 = molecular target: T1, KRAS G12D/RAF1 (Homo sapiens, UniProt P01116, G12D); assay: Protein-protein interaction (PPI) HTRF assay KRAS G12D/RAF1; format: binding; settings: Table 4
T1 construct: His6-MBP (N, cleaved yes); made in house; host or cells: E. coli
Method in brief: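 Biotinylated human KRAS (1-169; wt, G12D, G12V) or wt NRAS, GppNHp-loaded, pre-incubated 30 min RT with compound and streptavidin-d2, then His-RAF1 RBD (52-131) with anti-6His Tb cryptate added for 1 h RT. HTRF 665/615 ratio normalized to no compound (0%) and untagged RAF1 (100%); IC50.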

[1] = tested on: GP2D cells (KRAS G12D), phospho-ERK; assay: pERK In Cell Western (ICW) assay, GP2D cells; format: cell-based; settings: Table 4, 3 hours
Description: pERK ICW is a high throughput screening assay to evaluate the cellular potency of mutant KRAS small molecule inhibitors. KRAS mutant cell lines AGS and GP2D (KRAS^G12D) were purchased from ATCC and maintained respectively in RPMI and DMEM medium supplemented with 10% fetal bovine serum and Penicillin/Streptomycin.
Cells grown in exponential phase were trypsinized, resuspended in fresh media, and viable cells were counted using a cell counter with Trypan Blue (BioRad TC20). Cells were seeded into 384-well plate (Greiner 781091) at density of 5,000 cells/well for AGS and 10,000 cells/well for GP2D and allowed to grow overnight in a 37° C. CO2 incubator. The next day, compounds were dispensed into wells with a ½ log, 10-point serial dilution and top concentration of […] using Tecan D300e dispenser and incubated for 3 hours in a 37° C. CO2 incubator. Cells were then fixed with paraformaldehyde (Electron Microscopy Sciences, 15710, 4% final concentration) for 30 min, permeabilized with wash buffer (1×PBS+0.1% Triton X-100) for 30 min and blocked with Odyssey blocking buffer (Li—COR 927-70001) for 1 hour, all at room temperature (RT). Phospho-ERK antibody (CST 4370L) was diluted 1:500 in Odyssey blocking+0.2% Tween 20 and incubated with cells overnight at 4° C. The next day, plates were washed 5× with wash buffer, incubated with IRDye 800 CW, Goat anti-Rabbit secondary antibody (Li—COR 926-32211, 1:500) and DRAQ5 (CST 4084L, 1:5,000) diluted in Odyssey blocking+0.2% Tween 20 for 1 hour, washed 5×, and imaged on an Odyssey CLx imaging system.
For data analysis, signal intensities from 800 (phosphor-ERK) and 700 (DRAQ5) channels were extracted, and phospho-ERK signals were normalized to DRAQ5 signals for each well and percent of DMSO control values were computed. Data were then imported into Graphpad Prism to compute half-maximal inhibitory concentrations (IC50) using a 4-parameter variable slope model. Z-factor for each plate was computed from signals derived from wells treated with either DMSO or […] of Trametinib. AGS pERK ICW (Method B) IC50 (uM) values of selected compounds are depicted in Table 2 with compounds having a value 0.001 uM to 0.01 uM as ++++; >0.01 uM to 0.1 uM as +++; >0.1 uM to 1 uM as ++; 1 uM to 10 uM as + and >10 uM as NA.

T1 sequence (P01116 with tags, fused parts or gaps isoform P01116-2 G12D): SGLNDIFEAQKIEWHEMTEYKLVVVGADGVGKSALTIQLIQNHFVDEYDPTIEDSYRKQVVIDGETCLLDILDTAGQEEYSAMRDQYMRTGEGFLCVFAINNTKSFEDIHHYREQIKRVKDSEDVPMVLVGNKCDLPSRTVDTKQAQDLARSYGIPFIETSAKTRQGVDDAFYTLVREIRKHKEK

`Cc1noc(-c2cc3n(n2)CCCN(c2nc(OC[C@@]45CCCN4C[C@H](F)C5)nc(N4CC5(CCc6sc(N)c(C#N)c65)C4)c2C#N)C3)n1` [Compound 16, 2-amino-1′-[5-cyano-6-[2-(3-methyl-1,2,4-oxadiazol-5-yl)-4,6,7,8-tetrahydropyrazolo[1,5-a][1,4]diazepin-5-yl]-2-[[(2R,8S)-2-fluoro-1,2,3,5,6,7-hexahydropyrrolizin-8-yl]methoxy]pyrimidin-4-yl]spiro[5,6-dihydrocyclopenta[b]thiophene-4,3′-azetidine]-3-carbonitrile] gave an IC50 (KRAS G12D/RAF1) of 10 to 100 µM and an IC50 [1] of 100 to 1000 nM.
Work on `Cc1noc(-c2nn3c(c2Cl)CN(c2nc(OC[C@@]45CCCN4C[C@H](F)C5)nc(N4CC5(CCc6sc(N)c(C#N)c65)C4)c2C#N)CCC3)n1` [Compound 17, 2-amino-1′-[6-[3-chloro-2-(3-methyl-1,2,4-oxadiazol-5-yl)-4,6,7,8-tetrahydropyrazolo[1,5-a][1,4]diazepin-5-yl]-5-cyano-2-[[(2R,8S)-2-fluoro-1,2,3,5,6,7-hexahydropyrrolizin-8-yl]methoxy]pyrimidin-4-yl]spiro[5,6-dihydrocyclopenta[b]thiophene-4,3′-azetidine]-3-carbonitrile] yielded an IC50 (KRAS G12D/RAF1) of 1 to 10 µM and an IC50 [1] of 10 to 100 nM.
`CN(C)C(=O)c1nn2c(c1Cl)CN(c1nc(OCC34CCCN3CCC4)nc(N3CC4(CCc5sc(N)c(C#N)c54)C3)c1C#N)CCC2` [Compound 18, 5-[6-(2-amino-3-cyano-spiro[5,6-dihydrocyclopenta[b]thiophene-4,3′-azetidine]-1′-yl)-5-cyano-2-(1,2,3,5,6,7-hexahydropyrrolizin-8-ylmethoxy)pyrimidin-4-yl]-3-chloro-N,N-dimethyl-4,6,7,8-tetrahydropyrazolo[1,5-a][1,4]diazepine-2-carboxamide] gave an IC50 (KRAS G12D/RAF1) of 0.1 to 1 µM and an IC50 [1] of 10 to 100 nM.
In the case of `N#Cc1c(N2CCCCCC2)nc(OC[C@@]23CCCN2C[C@H](F)C3)nc1N1CC2(CCc3sc(N)c(C#N)c32)C1` [Compound 19, 2-amino-1′-[6-(azepan-1-yl)-5-cyano-2-[[(2R)-2-fluoro-1,2,3,5,6,7-hexahydropyrrolizin-8-yl]methoxy]pyrimidin-4-yl]spiro[5,6-dihydrocyclopenta[b]thiophene-4,3′-azetidine]-3-carbonitrile], the IC50 (KRAS G12D/RAF1) is reported as 1 to 10 µM and the IC50 [1] is reported as 100 to 1000 nM.
In the case of `CS(=O)(=O)c1cc2n(n1)CCCN(c1nc(OC[C@@]34CCCN3C[C@H](F)C4)nc(N3CC4(CCc5sc(N)c(C#N)c54)C3)c1C#N)C2` [Compound 21, 2-amino-1′-[5-cyano-2-[[(2R,8S)-2-fluoro-1,2,3,5,6,7-hexahydropyrrolizin-8-yl]methoxy]-6-(2-methylsulfonyl-4,6,7,8-tetrahydropyrazolo[1,5-a][1,4]diazepin-5-yl)pyrimidin-4-yl]spiro[5,6-dihydrocyclopenta[b]thiophene-4,3′-azetidine]-3-carbonitrile], the IC50 (KRAS G12D/RAF1) is reported as 1 to 10 µM and the IC50 [1] is reported as 10 to 100 nM.
`N#Cc1c(N)sc2c1C1(CC2)CN(c2nc(OCC3(CN4CCOCC4)CC3)nc(N3C[C@H]4CC[C@@H](C3)N4)c2F)C1` [Compound 22, 2-amino-1′-[6-(3,8-diazabicyclo[3.2.1]octan-3-yl)-5-fluoro-2-[[1-(morpholinomethyl)cyclopropyl]methoxy]pyrimidin-4-yl]spiro[5,6-dihydrocyclopenta[b]thiophene-4,3′-azetidine]-3-carbonitrile] gave an IC50 (KRAS G12D/RAF1) of 0.1 to 1 µM and an IC50 [1] of 10 to 100 nM.
`N#Cc1c(N2C[C@H]3CC[C@@H](C2)N3)nc(OCC2(CN3CCOCC3)CC2)nc1N1CC2(CCc3sc(N)nc32)C1` [Compound 23, 4-(2-aminospiro[5,6-dihydrocyclopenta[d]thiazole-4,3′-azetidine]-1′-yl)-2-[[1-(morpholinomethyl)cyclopropyl]methoxy]-6-[(1R,5S)-3,8-diazabicyclo[3.2.1]octan-3-yl]pyrimidine-5-carbonitrile] was tested, and the IC50 (KRAS G12D/RAF1) was 1 to 10 µM and the IC50 [1] was 10 to 100 nM.
With `N#Cc1cc2n(n1)CCCN(c1nc(OC[C@@]34CCCN3C[C@H](F)C4)nc(N3CC4(CCc5sc(N)c(C#N)c54)C3)c1C#N)C2` [Compound 24, 2-amino-1′-[5-cyano-6-(2-cyano-4,6,7,8-tetrahydropyrazolo[1,5-a][1,4]diazepin-5-yl)-2-[[(2R,8S)-2-fluoro-1,2,3,5,6,7-hexahydropyrrolizin-8-yl]methoxy]pyrimidin-4-yl]spiro[5,6-dihydrocyclopenta[b]thiophene-4,3′-azetidine]-3-carbonitrile] the IC50 (KRAS G12D/RAF1) was 10 to 100 µM and the IC50 [1] was 100 to 1000 nM.
With `N#Cc1c(N2C[C@H]3CC[C@@H](C2)N3)nc(OC[C@@]23CCCN2C[C@H](F)C3)nc1N1CC2(CCc3sc(N)c(C#N)c32)C1` [Compound 25, 2-amino-1′-[5-cyano-6-(3,8-diazabicyclo[3.2.1]octan-3-yl)-2-[[(2R,8S)-2-fluoro-1,2,3,5,6,7-hexahydropyrrolizin-8-yl]methoxy]pyrimidin-4-yl]spiro[5,6-dihydrocyclopenta[b]thiophene-4,3′-azetidine]-3-carbonitrile] the IC50 (KRAS G12D/RAF1) was 0.1 to 1 µM and the IC50 [1] was 1 to 10 nM.
Work on `CN(C)CC(F)(F)COc1nc(N2C[C@H]3CC[C@@H](C2)N3)c(C#N)c(N2CC3(CCc4sc(N)c(C#N)c43)C2)n1` [Compound 26, 2-amino-1′-[5-cyano-6-(3,8-diazabicyclo[3.2.1]octan-3-yl)-2-[3-(dimethylamino)-2,2-difluoro-propoxy]pyrimidin-4-yl]spiro[5,6-dihydrocyclopenta[b]thiophene-4,3′-azetidine]-3-carbonitrile] yielded an IC50 (KRAS G12D/RAF1) of 10 to 100 µM and an IC50 [1] of 100 to 1000 nM.
`C[C@@]1(O)CCCN(c2nc(OC[C@@]34CCCN3C[C@H](F)C4)nc(N3CC4(CCc5sc(N)c(C#N)c54)C3)c2C#N)C1` [Compound 27, 2-amino-1′-[5-cyano-2-[[(2R,8S)-2-fluoro-1,2,3,5,6,7-hexahydropyrrolizin-8-yl]methoxy]-6-[(3R)-3-hydroxy-3-methyl-1-piperidyl]pyrimidin-4-yl]spiro[5,6-dihydrocyclopenta[b]thiophene-4,3′-azetidine]-3-carbonitrile] was tested, and the IC50 (KRAS G12D/RAF1) was 1 to 10 µM and the IC50 [1] was 100 to 1000 nM.
`Cn1c(-c2cc3n(n2)CCCN(c2nc(OC[C@@]45CCCN4C[C@H](F)C5)nc(N4CC5(CCc6sc(N)c(C#N)c65)C4)c2C#N)C3)nc2ccccc21` [Compound 29, 2-amino-1′-[5-cyano-6-[2-(1-methylbenzimidazol-2-yl)-4,6,7,8-tetrahydropyrazolo[1,5-a][1,4]diazepin-5-yl]-2-[[(2R,8S)-2-fluoro-1,2,3,5,6,7-hexahydropyrrolizin-8-yl]methoxy]pyrimidin-4-yl]spiro[5,6-dihydrocyclopenta[b]thiophene-4,3′-azetidine]-3-carbonitrile] showed an IC50 (KRAS G12D/RAF1) of 10 to 100 µM and an IC50 [1] of 100 to 1000 nM.
Work on `Cn1c(-c2nn3c(c2Cl)CN(c2nc(OC[C@@]45CCCN4C[C@H](F)C5)nc(N4CC5(CCc6sc(N)c(C#N)c65)C4)c2C#N)CCC3)nc2ccccc21` [Compound 30] yielded an IC50 (KRAS G12D/RAF1) of 10 to 100 µM and an IC50 [1] of 10 to 100 nM.
For `Cn1c(-c2nn3c(c2Cl)CN(c2nc(OC[C@@]45CCCN4C[C@H](F)C5)nc(N4CC5(CCc6sc(N)c(C#N)c65)C4)c2C#N)CCC3)nc2c(F)cccc21` [Compound 32, 2-amino-1′-[6-[3-chloro-2-(4-fluoro-1-methyl-benzimidazol-2-yl)-4,6,7,8-tetrahydropyrazolo[1,5-a][1,4]diazepin-5-yl]-5-cyano-2-[[(2R,8S)-2-fluoro-1,2,3,5,6,7-hexahydropyrrolizin-8-yl]methoxy]pyrimidin-4-yl]spiro[5,6-dihydrocyclopenta[b]thiophene-4,3′-azetidine]-3-carbonitrile], the IC50 (KRAS G12D/RAF1) was 10 to 100 µM and the IC50 [1] was 10 to 100 nM.
`N#Cc1c(N2CCCC(C#N)CC2)nc(OC[C@@]23CCCN2C[C@H](F)C3)nc1N1CC2(CCc3sc(N)c(C#N)c32)C1` (stereo partly drawn) [Compound 33, 2-amino-1′-[5-cyano-6-(4-cyanoazepan-1-yl)-2-[[(2R,8S)-2-fluoro-1,2,3,5,6,7-hexahydropyrrolizin-8-yl]methoxy]pyrimidin-4-yl]spiro[5,6-dihydrocyclopenta[b]thiophene-4,3′-azetidine]-3-carbonitrile] showed an IC50 (KRAS G12D/RAF1) of 1 to 10 µM and an IC50 [1] of 100 to 1000 nM.
